Consider 2 compounds from US20250276957A1, “CRYSTALLINE FORMS OF AN IL-17 INHIBITOR” (Novartis AG, priority 2022, published 2025).

In series [1] the target is T1, Human IL-17A x IL-17RA (Homo sapiens, UniProt Q16552).
T1 sequence (Q16552 24-155): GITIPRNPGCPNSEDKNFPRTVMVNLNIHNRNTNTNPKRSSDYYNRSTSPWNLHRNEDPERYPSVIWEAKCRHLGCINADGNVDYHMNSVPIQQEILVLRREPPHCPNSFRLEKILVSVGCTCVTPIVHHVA
The settings on record: biotinylated human IL-17A 5 nM, AF647-labeled human IL-17RA 30 nM; read-out: IL17AA FRET/IL17Rawt IC50; cited from earlier work.

Series [2] in a line: Dynamic vapor sorption (DVS) and stability at ambient temperature and humidity. The class given is physicochemical. As to conditions: water loss occurs quickly during handling. From the text:
Due to the unstable nature of hydrate HA at ambient temperature and humidity, water loss occurs quickly during handling of the samples and the high water content observed by DVS analysis was not seen in DSC or TGA analysis. This water loss behavior is considered to explain the different DSC and TGA results for the two hydrate HA samples.

For the compound `Cc1cc[n+]([O-])c(C)c1-c1ccc(NC(=O)[C@@H](NC(=O)c2ccnn2C)[C@H]2CCCc3ccccc32)cc1` [2,4-dimethyl-3-(4-((S)-2-(1-methyl-1H-pyrazole-5-carboxamido)-2-((S)-1,2,3,4-tetrahydronaphthalen-1-yl)acetamido)phenyl)pyridine 1-oxide], the IC50 in series [1] is 8 nM.
Take `Cc1cc[n+]([O-])c(C)c1-c1ccc(NC(=O)[C@@H](NC(=O)c2ccnn2C)[C@H]2CCCc3ccccc32)cc1` [hydrate HA, 2,4-dimethyl-3-(4-((S)-2-(1-methyl-1H-pyrazole-5-carboxamido)-2-((S)-1,2,3,4-tetrahydronaphthalen-1-yl)acetamido)phenyl)pyridine 1-oxide]: in series [2], the “stability at ambient temperature and humidity” value is listed as “unstable”.
